Measurements reported in patent publication US12139487B2, “Compounds and uses thereof” (Foghorn Therapeutics Inc., priority 2022, dated 2024).

Experiments:
[1] = molecular target: T1, BRG-1 (Homo sapiens, UniProt P51532); experiment: ATPase catalytic activity assay (ADP-Glo), BRG-1; format: biochemical; conditions: Table 10, read-out: BRG1 IC50
T1 construct: made in house; host or cells: High Five insect cells
Method in brief: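 In this in vitro format, BRG-1 hydrolysis product ADP is detected via a two-step ADP-Glo workup (ATP removal, then ADP-to-ATP conversion with luciferase detection) followed by a luminescence read.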

[2] = molecular target: T2, BRM (Homo sapiens, UniProt P51531); experiment: ATPase catalytic activity assay (ADP-Glo), BRM; format: biochemical; conditions: Table 10; for Ratio (BRG1 IC50 (μM) divided by BRM IC50 (μM)): ATPase assay, selectivity BRG1/BRM; for IC50: ATPase catalytic activity assay (ADP-Glo)
T2 construct: made in house; host or cells: High Five insect cells
T2 sequence (P51531 whole entry): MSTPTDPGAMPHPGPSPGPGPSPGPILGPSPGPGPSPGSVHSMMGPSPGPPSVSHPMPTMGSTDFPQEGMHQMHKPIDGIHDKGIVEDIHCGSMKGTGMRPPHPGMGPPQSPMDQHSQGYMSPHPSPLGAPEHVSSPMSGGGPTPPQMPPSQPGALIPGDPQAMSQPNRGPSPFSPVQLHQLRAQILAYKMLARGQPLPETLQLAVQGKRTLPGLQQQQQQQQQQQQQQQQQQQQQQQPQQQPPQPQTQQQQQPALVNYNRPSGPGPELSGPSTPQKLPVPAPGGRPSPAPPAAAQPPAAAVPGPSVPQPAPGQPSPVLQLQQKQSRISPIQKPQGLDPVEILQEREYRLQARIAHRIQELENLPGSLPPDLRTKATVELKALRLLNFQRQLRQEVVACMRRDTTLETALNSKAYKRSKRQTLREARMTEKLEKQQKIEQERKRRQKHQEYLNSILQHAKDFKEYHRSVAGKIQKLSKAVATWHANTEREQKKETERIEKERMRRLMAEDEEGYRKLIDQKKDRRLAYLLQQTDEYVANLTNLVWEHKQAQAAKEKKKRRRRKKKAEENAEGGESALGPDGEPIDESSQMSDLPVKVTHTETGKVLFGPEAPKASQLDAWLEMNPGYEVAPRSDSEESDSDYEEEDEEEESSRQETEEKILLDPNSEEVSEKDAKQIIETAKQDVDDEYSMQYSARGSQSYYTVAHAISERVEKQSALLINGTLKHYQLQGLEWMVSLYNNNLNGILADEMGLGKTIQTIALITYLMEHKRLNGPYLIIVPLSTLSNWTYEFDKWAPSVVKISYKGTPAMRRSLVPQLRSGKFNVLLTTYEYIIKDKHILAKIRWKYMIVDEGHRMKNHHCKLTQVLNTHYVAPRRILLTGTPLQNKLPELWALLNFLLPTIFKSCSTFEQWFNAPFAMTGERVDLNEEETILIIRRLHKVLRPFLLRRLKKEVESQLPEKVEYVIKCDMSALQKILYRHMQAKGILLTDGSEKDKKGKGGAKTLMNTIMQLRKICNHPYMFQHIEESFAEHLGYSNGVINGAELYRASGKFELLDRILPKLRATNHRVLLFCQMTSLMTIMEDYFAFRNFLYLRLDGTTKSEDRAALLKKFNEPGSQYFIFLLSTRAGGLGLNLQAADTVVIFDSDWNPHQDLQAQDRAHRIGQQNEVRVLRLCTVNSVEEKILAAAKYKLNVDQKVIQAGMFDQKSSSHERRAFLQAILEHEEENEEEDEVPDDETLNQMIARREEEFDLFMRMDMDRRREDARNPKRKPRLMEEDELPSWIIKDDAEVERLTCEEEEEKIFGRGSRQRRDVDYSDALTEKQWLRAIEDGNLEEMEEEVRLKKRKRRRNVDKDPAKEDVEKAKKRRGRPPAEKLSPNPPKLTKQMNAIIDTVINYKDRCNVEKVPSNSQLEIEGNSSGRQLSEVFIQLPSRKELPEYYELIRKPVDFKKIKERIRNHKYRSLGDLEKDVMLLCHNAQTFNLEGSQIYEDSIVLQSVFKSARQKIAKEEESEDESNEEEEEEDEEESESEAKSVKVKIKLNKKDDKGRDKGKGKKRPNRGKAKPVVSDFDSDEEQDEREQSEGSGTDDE
Method in brief: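 ADP-Glo luminescence measures ADP produced by BRM ATPase (30 nM) during 1 h at room temperature. ATP is 400 μM, with 20 nM salmon sperm DNA as cofactor. Buffer: 20 mM Tris pH 8, 20 mM MgCl2, 50 mM NaCl, 0.1% Tween-20, 1 mM DTT.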

T1 sequence (P51532 whole entry): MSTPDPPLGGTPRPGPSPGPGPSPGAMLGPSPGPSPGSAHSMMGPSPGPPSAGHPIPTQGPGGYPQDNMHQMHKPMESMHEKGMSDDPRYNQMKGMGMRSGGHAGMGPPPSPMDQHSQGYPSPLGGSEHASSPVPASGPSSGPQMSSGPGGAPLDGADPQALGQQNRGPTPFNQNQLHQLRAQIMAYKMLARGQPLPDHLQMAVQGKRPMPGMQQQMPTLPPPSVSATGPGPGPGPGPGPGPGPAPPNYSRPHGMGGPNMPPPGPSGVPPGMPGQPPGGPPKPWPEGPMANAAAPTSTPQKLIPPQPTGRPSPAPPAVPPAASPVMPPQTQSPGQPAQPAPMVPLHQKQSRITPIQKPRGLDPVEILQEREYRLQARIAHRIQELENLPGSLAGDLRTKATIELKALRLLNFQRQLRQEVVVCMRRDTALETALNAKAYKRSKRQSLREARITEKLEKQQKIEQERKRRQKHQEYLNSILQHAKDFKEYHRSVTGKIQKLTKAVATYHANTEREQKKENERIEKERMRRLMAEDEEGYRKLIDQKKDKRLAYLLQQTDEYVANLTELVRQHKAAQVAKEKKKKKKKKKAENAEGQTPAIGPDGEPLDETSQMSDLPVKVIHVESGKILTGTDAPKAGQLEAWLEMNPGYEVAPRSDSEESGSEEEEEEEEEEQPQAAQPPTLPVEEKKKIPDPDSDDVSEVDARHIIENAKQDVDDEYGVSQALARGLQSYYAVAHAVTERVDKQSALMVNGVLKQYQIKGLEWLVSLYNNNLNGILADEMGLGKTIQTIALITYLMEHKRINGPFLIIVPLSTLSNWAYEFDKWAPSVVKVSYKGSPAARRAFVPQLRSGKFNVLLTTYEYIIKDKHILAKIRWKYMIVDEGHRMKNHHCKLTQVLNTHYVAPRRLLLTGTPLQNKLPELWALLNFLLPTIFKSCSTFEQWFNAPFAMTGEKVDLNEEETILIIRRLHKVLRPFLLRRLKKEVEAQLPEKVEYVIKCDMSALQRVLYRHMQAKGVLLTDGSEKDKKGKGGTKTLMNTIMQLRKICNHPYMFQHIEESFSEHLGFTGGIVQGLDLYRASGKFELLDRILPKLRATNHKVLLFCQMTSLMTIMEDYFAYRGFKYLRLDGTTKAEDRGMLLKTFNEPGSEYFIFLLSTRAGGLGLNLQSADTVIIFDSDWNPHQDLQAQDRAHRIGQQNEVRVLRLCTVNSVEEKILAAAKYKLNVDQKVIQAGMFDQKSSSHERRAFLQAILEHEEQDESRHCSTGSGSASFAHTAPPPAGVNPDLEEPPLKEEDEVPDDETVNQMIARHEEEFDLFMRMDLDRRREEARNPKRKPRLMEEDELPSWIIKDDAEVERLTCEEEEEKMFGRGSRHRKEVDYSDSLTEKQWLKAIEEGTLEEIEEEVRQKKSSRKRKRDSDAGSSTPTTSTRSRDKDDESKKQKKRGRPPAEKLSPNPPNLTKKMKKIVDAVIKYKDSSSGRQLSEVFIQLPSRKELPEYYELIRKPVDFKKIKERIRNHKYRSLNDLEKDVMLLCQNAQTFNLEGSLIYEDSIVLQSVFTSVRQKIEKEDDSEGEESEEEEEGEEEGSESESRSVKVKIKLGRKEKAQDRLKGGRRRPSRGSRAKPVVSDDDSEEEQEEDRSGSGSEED

| Compound | IC50 [1] | Ratio (BRG1 IC50 (μM) divided by BRM IC50 (μM)) [2] | IC50 [2] |
| --- | --- | --- | --- |
| O=C(NCc1cc(C#Cc2cccc(OC(F)F)n2)ccn1)c1cc(F)c2c(c1)S(=O)(=O)[C@@H](F)COC2 [Compound 184, (R)—N-((4-((6-(difluoromethoxy)pyridin-2-yl)ethynyl)pyridin-2-yl)methyl)-2,6-difluoro-3,5-dihydro-2H-benzo[e][1,4]oxathiepine-8-carboxamide 1,1-dioxide] | 3420 nM | 23.91 | 143 nM |
| COc1nc(C(F)F)ccc1-c1ccc2cnc(CNC(=O)c3cc(Cl)c4c(c3)S(=O)(=O)[C@@H](F)COC4)cc2n1 [Compound 221] | 178 nM | 27.18 | 6.9 nM |
| O=C(NCc1cc2nc(-c3ccc(OC(F)F)c(C4CC4)n3)ccc2cn1)c1cc(F)c2c(c1)S(=O)(=O)[C@@H](F)CCO2 [Compound 89] | 132 nM | 28.75 | 3.2 nM |
| C[C@@H]1CN(c2cccc(-c3ccc4cnc(CNC(=O)c5cc(Cl)c6c(c5)S(=O)(=O)[C@@H](F)CCO6)cc4n3)n2)C[C@H](C)O1 [Compound 148, (R)-9-chloro-N-((2-(6-((2S,6R)-2,6-dimethylmorpholino)pyridin-2-yl)-1,6-naphthyridin-7-yl)methyl)-4-fluoro-3,4-dihydro-2H-benzo[b][1,4]oxathiepine-7-carboxamide 5,5-dioxide] | 82.6 nM | 17.59 | 4.9 nM |
| C[C@@H]1CN(c2cccc(-c3ccc4cnc(CNC(=O)c5cc(OC(F)F)c6c(c5)S(=O)(=O)[C@@H](F)CCO6)cc4n3)n2)C[C@H](C)O1 [Compound 316] | 325 nM | 17.77 | 18.3 nM |
| Cc1cc2c(-c3ccc4cnc(CNC(=O)c5cc(F)c6c(c5)S(=O)(=O)[C@@H](F)CCO6)cc4n3)ccnc2n1C [Compound 267] | 91.8 nM | 10.49 | 8.8 nM |
| Cc1cc2c(-c3ccc4cnc(CNC(=O)c5cc(F)c6c(c5)S(=O)(=O)[C@@H](F)CCO6)cc4n3)ccc(F)c2n1C [Compound 68] | 36.2 nM | 13.58 | 2.7 nM |
| Cc1cc(C(=O)NCc2cc3nc(-c4ccc(OC(F)F)c(C5CC5)n4)ccc3cn2)cc2c1OCC[C@H](F)S2(=O)=O [Compound 324] | 357 nM | 22.15 | 16.1 nM |
| [2H]C1([2H])OC([2H])([2H])[C@H](F)S(=O)(=O)c2cc(C(=O)NCc3cc4nc(-c5ccc(C(F)F)nc5OC)ccc4cn3)cc(F)c21 [Compound 23] | 37.9 nM | – | 1.6 nM |
| O=C(NCc1cc2nc(N3CCCc4c3ccnc4OC3CC3)ccc2cn1)c1cc(F)c2c(c1)S(=O)(=O)[C@@H](F)CCO2 [Compound 76] | 45.1 nM | 16.02 | 2.8 nM |
| O=C(NCc1cc2nc(-c3ccnc(N4CCCC4)n3)ccc2cn1)c1cc(F)c2c(c1)S(=O)(=O)[C@@H](F)CCO2 [Compound 188] | 132 nM | 20.95 | 5.8 nM |
| [2H]C([2H])([2H])Oc1nc(C(F)F)ccc1-c1ccc2cnc(CNC(=O)c3cc(F)c4c(c3)S(=O)(=O)[C@@H](F)CCO4)cc2n1 [Compound 135] | 110 nM | 23.88 | 4.6 nM |
| CCOc1cccc(-c2ccc3cnc(CNC(=O)c4cc(F)c5c(c4)S(=O)(=O)[C@@H](F)CCO5)cc3n2)n1 [Compound 170] | 122 nM | 24.59 | 5.3 nM |

Further lines, results first:

| IC50 [1] | Ratio (BRG1 IC50 (μM) divided by BRM IC50 (μM)) [2] | IC50 [2] | Compound |
| --- | --- | --- | --- |
| 24 nM | 15.43 | 1.5 nM | O=C(NCc1cc2nc(N3CCCc4c(OC5CC5)ccnc43)ccc2cn1)c1cc(F)c2c(c1)S(=O)(=O)[C@@H](F)CCO2 [Compound 18] |
| 132 nM | 17.11 | 7.6 nM | O=C(NCc1cc2nc(-c3cncc(C4CC4)n3)ccc2cn1)c1cc(F)c2c(c1)S(=O)(=O)[C@@H](F)COC2 [Compound 238] |
| 163 nM | 17.58 | 9.4 nM | O=C(NCc1cc2nc(N3CCOc4cc(F)cnc43)ccc2cn1)c1cc(F)c2c(c1)S(=O)(=O)[C@@H](F)CCO2 [Compound 282] |
| 126 nM | 15.83 | 8 nM | COc1nc([C@@](C)(F)C(F)F)ccc1-c1ccc2cnc(CNC(=O)c3cc(F)c4c(c3)S(=O)(=O)[C@@H](F)COC4)cc2n1 [Compound 251] |
| 115 nM | 11.49 | 9.6 nM | C[C@@H]1CCN1c1cnc2c(c1)OCCN2c1ccc2cnc(CNC(=O)c3cc(Cl)c4c(c3)S(=O)(=O)[C@@H](F)COC4)cc2n1 [Compound 289] |
| 24.3 nM | 14.77 | 1.5 nM | C[C@H]1C[C@@H]1c1ccc2c(n1)N(c1ccc3cnc(CNC(=O)c4cc(F)c5c(c4)S(=O)(=O)[C@@H](F)COC5)cc3n1)CCO2 [Compound 13] |
| 78.3 nM | 20.66 | 3.2 nM | O=C(NCc1cc2nc(N3CCOc4cc([C@@H]5CC5(F)F)cnc43)ccc2cn1)c1cc(F)c2c(c1)S(=O)(=O)[C@@H](F)CCO2 [Compound 87] |
| 30.2 nM | 23.22 | 1.3 nM | O=C(NCc1cc2cc(N3CCOc4cc(C5CC5)cnc43)ccc2cn1)c1cc(F)c2c(c1)S(=O)(=O)[C@@H](F)COC2 [Compound 9] |
| 31.9 nM | 15.93 | 2 nM | CC#Cc1ccc2c(n1)N(c1ccc3cnc(CNC(=O)c4cc(F)c5c(c4)S(=O)(=O)[C@@H](F)CCO5)cc3n1)CCO2 [Compound 37] |
| 83.9 nM | 16.19 | 5.7 nM | O=C(NCc1cc2nc(N3CCOc4cc(N5CC[C@@H](F)C5)cnc43)ccc2cn1)c1cc(F)c2c(c1)S(=O)(=O)[C@@H](F)CCO2 [Compound 182] |
| 95.4 nM | 26.75 | 3.6 nM | O=C(NCc1cc2nc(N3CCOc4cc(F)cnc43)ccc2cn1)c1cc(F)c2c(c1)S(=O)(=O)[C@@H](F)CCO2 [Compound 102] |
| 74.9 nM | 15.93 | 4.3 nM | O=C(NCc1cc2nc(N3CCOc4cc(N5C[C@@H](F)[C@@H](F)C5)cnc43)ccc2cn1)c1cc(F)c2c(c1)S(=O)(=O)[C@@H](F)CCO2 [Compound 124] |
| 31.1 nM | 18.65 | 1.7 nM | CO[C@H](C)COc1ccc2c(c1)N(c1ccc3cnc(CNC(=O)c4cc(F)c5c(c4)S(=O)(=O)[C@@H](F)CCO5)cc3n1)CCO2 [Compound 24] |
| 38.7 nM | 15.78 | 2.5 nM | O=C(NCc1cc2nc(N3CCOc4cc(N5C[C@@H](F)[C@H](F)C5)cnc43)ccc2cn1)c1cc(F)c2c(c1)S(=O)(=O)[C@@H](F)COC2 [Compound 50] |
| 64.4 nM | 23.60 | 2.5 nM | O=C(NCc1cc2nc(N3CCOc4ccc(C(F)F)nc43)ccc2cn1)c1cc(F)c2c(c1)S(=O)(=O)[C@@H](F)COC2 [Compound 58] |
